# Data reported in patent US7109338B2, “1,2-disubstituted 1,4-dihydro-4-oxoquinoline compounds” (priority 1999, dated 2006).
# What was measured:
# [1] = tested on: Poliovirus type 1 (Polio 1, Sabin); experiment: microbe, parasite or virus in culture; assay type: cell-based; settings: for IC50: Enterovirus C, HeLa S3, read-out: IC50 Polio 1
# [2] = tested on: echovirus type 11 (Echo 11, Gregory); experiment: In vitro anti-picornavirus activity (MTT), Echo 11; assay type: cell-based; settings: HeLa-S3 cells, MTT method, 37° C.; for IC50: Enterovirus B
# [3] = tested on: coxsackievirus type A7 (CA7); experiment: In vitro anti-picornavirus activity (MTT), CA7; assay type: cell-based; settings: HeLa-S3 cells, MTT method, 37° C.; for IC50: Coxsackievirus
# [4] = tested on: coxsackievirus type B4 (CB4,JVB); experiment: In vitro anti-picornavirus activity (MTT), CB4; assay type: cell-based; settings: HeLa cells, MTT method, 37° C.; for IC50: Coxsackievirus
# [5] = tested on: HRV1A (E28); experiment: Anti-rhinovirus activity (MTT), HRV1A; assay type: cell-based, human rhinovirus; settings: for IC50 HRV 1A: HeLa (Ohio strain) cells, MTT method, 33° C.; for IC50: Human rhinovirus sp., HRV1A, HeLa, read-out: IC50 HRV 1A
# [6] = tested on: human rhinovirus type 1B (HRV 1B, B632); experiment: Anti-rhinovirus activity (MTT), HRV1B; assay type: cell-based; settings: HeLa (Ohio strain) cells, MTT method, 33° C.; for IC50: Human rhinovirus sp., HRV1B, read-out: IC50 HRV1B
# [7] = tested on: HRV 2 (HGP); experiment: Anti-rhinovirus activity (MTT), HRV2; assay type: cell-based, human rhinovirus; settings: HeLa (Ohio strain) cells, MTT method, 33° C.; for IC50: Human rhinovirus sp., HRV2, read-out: IC50 HRV2
# [8] = tested on: HRV14 (1059); experiment: Anti-rhinovirus activity (MTT), HRV14; assay type: cell-based, human rhinovirus; settings: HeLa (Ohio strain) cells, MTT method, 33° C.; for IC50: Human rhinovirus sp., HRV14, read-out: IC50 HRV 14
# [9] = tested on: HRV 89 (41617-Gallo); experiment: Anti-rhinovirus activity (MTT), HRV89; assay type: cell-based, human rhinovirus; settings: HeLa (Ohio strain) cells, MTT method, 33° C.; for IC50: Human rhinovirus sp., HRV89, read-out: IC50 HRV89
# [10] = tested on: HeLa cells; experiment: Cytotoxicity (MTT, without virus), HeLa; settings: HeLa, no virus, incubated for 4 days
# [11] = tested on: HeLa-S3 cells; experiment: Cytotoxicity (MTT, without virus), HeLa-S3; settings: HeLa-S3, no virus, incubated for 4 days
# [12] = tested on: HeLa (Ohio strain)cells; experiment: Cytotoxicity (MTT, without virus), HeLa(Ohio); settings: HeLa(Ohio), no virus, incubated for 4 days
Structure (SMILES),IC50 Polio 1 [1] [µg/mL],IC50 Echo 11 [2] [µg/mL],IC50 CA7 [3] [µg/mL],IC50 CB4 [4] [µg/mL],IC50 HRV1B [6] [µg/mL],IC50 HRV2 [7] [µg/mL],IC50 HRV89 [9] [µg/mL],Cytotoxicity CC50 HeLa [10] [µg/mL],Cytotoxicity CC50 HeLa-S3 [11] [µg/mL],Cytotoxicity CC50 HeLa(Ohio) [12] [µg/mL],further results
CCn1c2c(c(=O)c3cc(C(C)C)ccc31)C(NC(C)=O)c1ccccc1-2 (centres unmarked),,,,,,,,,,,melting point: 215 °C (dec.)
CCn1c2c(c(=O)c3cc(C(C)C)ccc31)C(N)c1ccccc1-2.Cl.Cl (centres unmarked),,,,,,,,,,,melting point: 200 °C (dec.)
"CCn1c2c(c(=O)c3cc(C(C)C)ccc31)C(=NOC)c1ccccc1-2 [Compound C49, 5-Ethyl-8-isoproypl-11-methoxyimino-5,10-dihydro-11H-indeno[1,2-b]quinolin-10-one]",0.52,0.26,9.2,2.3,1.9,1.7,2.1,,,,IC50 HRV 1A [5]: >10 µg/mL; IC50 HRV 14 [8]: 5.5 µg/mL
CCOC(=O)c1c(-c2ccccc2)n(C)c2ccc(C(C)C)cc2c1=O,,,,,,,,,,,melting point: 164 to 165 °C
COc1ccc2c(c1)Cc1c-2n(C)c2ccc(CC(C)C)cc2c1=O [Compound B11],0.45,0.28,>2,1.6,0.36,0.34,0.31,>2,>2,>2,IC50 HRV 1A [5]: 1.7 µg/mL; IC50 HRV 14 [8]: 0.78 µg/mL
"CCn1c2c(c(=O)c3cc(C(C)C)ccc31)C(C)c1ccccc1-2 (centres unmarked) [Compound C40, 5-Ethyl-8-isopropyl-11-methyl-5,10-dihydro-11H-indeno[1,2-b]quinolin-10-one]",,,,,,,,,,,IC50 [1]: 0.54 µg/mL; IC50 [2]: 0.24 µg/mL; IC50 [3]: > 3.3 µg/mL; IC50 [4]: 1.7 µg/mL; IC50 [5]: > 3.3 µg/mL; IC50 [6]: 0.51 µg/mL; IC50 [7]: 0.54 µg/mL; IC50 [8]: 1.1 µg/mL; IC50 [9]: 0.56 µg/mL; melting point: 152 to 154 °C
"CCn1c2c(c(=O)c3cc(C(C)C)ccc31)C(O)c1ccccc1-2 (centres unmarked) [Compound C43, 5-Ethyl-8-isopropyl-11-hydroxy-5,10-dihydro-11H-indeno[1,2-b]quinolin-10-one]",,,,,,,,,,,IC50 [1]: 1.5 µg/mL; IC50 [2]: 0.54 µg/mL; IC50 [3]: > 5 µg/mL; IC50 [4]: 2.9 µg/mL; IC50 [5]: > 5 µg/mL; IC50 [6]: 1.5 µg/mL; IC50 [7]: 0.67 µg/mL; IC50 [8]: 2.5 µg/mL; IC50 [9]: 0.86 µg/mL
CCCOc1ccc2c(c1)c(=O)c(C)c(-c1ccccc1)n2CC [Compound A32],0.93,0.40,1.9,>3.3,1.0,0.55,0.77,9.7,>10,>10,
CCn1c(-c2ccccc2)c(C)c(=O)c2cc(-c3ccccc3)ccc21 [Compound A171],0.52,0.22,1.9,2.0,0.43,0.76,0.39,>2.5,>2.5,>2.5,
Cc1cc(-c2cc(=O)c3cc(C(C)C)ccc3n2C)ccc1OC(C)C [Compound A100],0.57,0.24,4.5,1.4,0.85,0.43,0.20,>5,>5,>5,
CCn1c(-c2ccccc2)c(C)c(=O)c2cc(NCC(C)C)ccc21.Cl [Compound A160],0.55,0.27,2.7,2.9,0.73,0.45,0.78,>5,>5,>5,
CCn1c(-c2ccccc2)c(C)c(=O)c2ccc(C(C)C)cc21 [Compound A122],1.2,0.54,6.9,5.5,0.59,0.43,0.35,>10,>10,>10,
CC(C)c1ccc2c(c1)c(=O)cc(-c1ccc(Cl)c(Cl)c1)n2C [Compound A61],0.73,0.40,>4,>4,0.64,0.65,0.38,>4,>4,>4,
CCn1c(-c2ccccc2)c(C)c(=O)c2c(Cl)c(OCC(C)C)ccc21 [Compound A179],0.29,0.20,2.4,1.2,0.86,0.87,0.37,>4,>4,>4,
CC(C)c1ccc2c(c1)c(=O)cc(-c1cccs1)n2C [Compound A308],0.87,0.31,3.9,1.6,0.81,0.36,0.94,11,16,11,
CCn1c(-c2ccc(OC)c(C)c2)cc(=O)c2cc(C(C)C)ccc21 [Compound A98],0.66,0.26,2.9,1.2,0.78,0.42,0.36,>4,>4,>4,
CCn1c2c(c(=O)c3cc(C(C)C)ccc31)C(OC)(c1ccccc1)c1ccccc1-2 (centres unmarked),,,,,,,,,,,melting point: 237 to 239 °C
CCc1ccc2c(c1)Cc1c-2n(C)c2ccc(C(C)C)cc2c1=O [Compound B8],0.19,0.17,0.70,0.60,0.24,0.22,0.12,>1,>1,>1,IC50 HRV 1A [5]: >1 µg/mL; IC50 HRV 14 [8]: 0.40 µg/mL
